Source: BigSolDB 2.1

O=Cc1cccc([N+](=O)[O-])c1
solubility (mole fraction) (in DMF, 273.15 K): 0.324
solubility (mole fraction) (in DMF, 275.65 K): 0.347
solubility (mole fraction) (in DMF, 278.15 K): 0.368
solubility (mole fraction) (in DMF, 280.65 K): 0.393
solubility (mole fraction) (in DMF, 283.15 K): 0.419
solubility (mole fraction) (in DMF, 285.65 K): 0.447
solubility (mole fraction) (in DMF, 288.15 K): 0.472
solubility (mole fraction) (in DMF, 290.65 K): 0.503
solubility (mole fraction) (in DMF, 293.15 K): 0.528
solubility (mole fraction) (in DMF, 295.65 K): 0.561
solubility (mole fraction) (in DMF, 298.15 K): 0.594
solubility (mole fraction) (in DMF, 300.65 K): 0.627
solubility (mole fraction) (in DMF, 303.15 K): 0.66
solubility (mole fraction) (in acetic acid, 290.65 K): 0.159
solubility (mole fraction) (in acetic acid, 293.15 K): 0.182
solubility (mole fraction) (in acetic acid, 295.65 K): 0.206
solubility (mole fraction) (in acetic acid, 298.15 K): 0.235
solubility (mole fraction) (in acetic acid, 300.65 K): 0.267
solubility (mole fraction) (in acetic acid, 303.15 K): 0.304
solubility (mole fraction) (in acetone, 273.15 K): 0.164
solubility (mole fraction) (in acetone, 275.65 K): 0.184
solubility (mole fraction) (in acetone, 278.15 K): 0.206
solubility (mole fraction) (in acetone, 280.65 K): 0.231
solubility (mole fraction) (in acetone, 283.15 K): 0.258
solubility (mole fraction) (in acetone, 285.65 K): 0.289
solubility (mole fraction) (in acetone, 288.15 K): 0.322
solubility (mole fraction) (in acetone, 290.65 K): 0.359
solubility (mole fraction) (in acetone, 293.15 K): 0.401
solubility (mole fraction) (in acetone, 295.65 K): 0.445
solubility (mole fraction) (in acetone, 298.15 K): 0.487
solubility (mole fraction) (in acetone, 300.65 K): 0.534
solubility (mole fraction) (in acetone, 303.15 K): 0.585
solubility (mole fraction) (in acetonitrile, 273.15 K): 0.165
solubility (mole fraction) (in acetonitrile, 275.65 K): 0.183
solubility (mole fraction) (in acetonitrile, 278.15 K): 0.204
solubility (mole fraction) (in acetonitrile, 280.65 K): 0.226
solubility (mole fraction) (in acetonitrile, 283.15 K): 0.251
solubility (mole fraction) (in acetonitrile, 285.65 K): 0.277
solubility (mole fraction) (in acetonitrile, 288.15 K): 0.307
solubility (mole fraction) (in acetonitrile, 290.65 K): 0.338
solubility (mole fraction) (in acetonitrile, 293.15 K): 0.371
solubility (mole fraction) (in acetonitrile, 295.65 K): 0.409
solubility (mole fraction) (in acetonitrile, 298.15 K): 0.449
solubility (mole fraction) (in acetonitrile, 300.65 K): 0.49
solubility (mole fraction) (in acetonitrile, 303.15 K): 0.532
solubility (mole fraction) (in cyclohexane, 283.15 K): 0.00147
solubility (mole fraction) (in cyclohexane, 285.65 K): 0.00175
solubility (mole fraction) (in cyclohexane, 288.15 K): 0.00204
solubility (mole fraction) (in cyclohexane, 290.65 K): 0.0024
solubility (mole fraction) (in cyclohexane, 293.15 K): 0.00283
solubility (mole fraction) (in cyclohexane, 295.65 K): 0.00334
solubility (mole fraction) (in cyclohexane, 298.15 K): 0.00394
solubility (mole fraction) (in cyclohexane, 300.65 K): 0.00456
solubility (mole fraction) (in cyclohexane, 303.15 K): 0.0053
solubility (mole fraction) (in ethanol, 273.15 K): 0.0358
solubility (mole fraction) (in ethanol, 275.65 K): 0.0416
solubility (mole fraction) (in ethanol, 278.15 K): 0.048
solubility (mole fraction) (in ethanol, 280.65 K): 0.0555
solubility (mole fraction) (in ethanol, 283.15 K): 0.0637
solubility (mole fraction) (in ethanol, 285.65 K): 0.0736
solubility (mole fraction) (in ethanol, 288.15 K): 0.0844
solubility (mole fraction) (in ethanol, 290.65 K): 0.0959
solubility (mole fraction) (in ethanol, 293.15 K): 0.109
solubility (mole fraction) (in ethanol, 295.65 K): 0.125
solubility (mole fraction) (in ethanol, 298.15 K): 0.141
solubility (mole fraction) (in ethanol, 300.65 K): 0.161
solubility (mole fraction) (in ethanol, 303.15 K): 0.183
solubility (mole fraction) (in ethyl acetate, 273.15 K): 0.146
solubility (mole fraction) (in ethyl acetate, 275.65 K): 0.164
solubility (mole fraction) (in ethyl acetate, 278.15 K): 0.185
solubility (mole fraction) (in ethyl acetate, 280.65 K): 0.206
solubility (mole fraction) (in ethyl acetate, 283.15 K): 0.229
solubility (mole fraction) (in ethyl acetate, 285.65 K): 0.256
solubility (mole fraction) (in ethyl acetate, 288.15 K): 0.285
solubility (mole fraction) (in ethyl acetate, 290.65 K): 0.316
solubility (mole fraction) (in ethyl acetate, 293.15 K): 0.348
solubility (mole fraction) (in ethyl acetate, 295.65 K): 0.385
solubility (mole fraction) (in ethyl acetate, 298.15 K): 0.425
solubility (mole fraction) (in ethyl acetate, 300.65 K): 0.465
solubility (mole fraction) (in ethyl acetate, 303.15 K): 0.511
solubility (mole fraction) (in isopropanol, 273.15 K): 0.00629
solubility (mole fraction) (in isopropanol, 275.65 K): 0.00735
solubility (mole fraction) (in isopropanol, 278.15 K): 0.0086
solubility (mole fraction) (in isopropanol, 280.65 K): 0.00997
solubility (mole fraction) (in isopropanol, 283.15 K): 0.0115
solubility (mole fraction) (in isopropanol, 285.65 K): 0.0133
solubility (mole fraction) (in isopropanol, 288.15 K): 0.0153
solubility (mole fraction) (in isopropanol, 290.65 K): 0.0176
solubility (mole fraction) (in isopropanol, 293.15 K): 0.0203
solubility (mole fraction) (in isopropanol, 295.65 K): 0.0232
solubility (mole fraction) (in isopropanol, 298.15 K): 0.0267
solubility (mole fraction) (in isopropanol, 300.65 K): 0.0305
solubility (mole fraction) (in isopropanol, 303.15 K): 0.035
solubility (mole fraction) (in methanol, 273.15 K): 0.0889
solubility (mole fraction) (in methanol, 275.65 K): 0.103
solubility (mole fraction) (in methanol, 278.15 K): 0.118
solubility (mole fraction) (in methanol, 280.65 K): 0.136
solubility (mole fraction) (in methanol, 283.15 K): 0.156
solubility (mole fraction) (in methanol, 285.65 K): 0.178
solubility (mole fraction) (in methanol, 288.15 K): 0.203
solubility (mole fraction) (in methanol, 290.65 K): 0.23
solubility (mole fraction) (in methanol, 293.15 K): 0.261
solubility (mole fraction) (in methanol, 295.65 K): 0.295
solubility (mole fraction) (in methanol, 298.15 K): 0.332
solubility (mole fraction) (in methanol, 300.65 K): 0.373
solubility (mole fraction) (in methanol, 303.15 K): 0.419
solubility (mole fraction) (in n-butanol, 273.15 K): 0.0206
solubility (mole fraction) (in n-butanol, 275.65 K): 0.0235
solubility (mole fraction) (in n-butanol, 278.15 K): 0.0274
solubility (mole fraction) (in n-butanol, 280.65 K): 0.0314
solubility (mole fraction) (in n-butanol, 283.15 K): 0.0357
solubility (mole fraction) (in n-butanol, 285.65 K): 0.041
solubility (mole fraction) (in n-butanol, 288.15 K): 0.0466
solubility (mole fraction) (in n-butanol, 290.65 K): 0.0529
solubility (mole fraction) (in n-butanol, 293.15 K): 0.0596
solubility (mole fraction) (in n-butanol, 295.65 K): 0.0677
solubility (mole fraction) (in n-butanol, 298.15 K): 0.0764
solubility (mole fraction) (in n-butanol, 300.65 K): 0.086
solubility (mole fraction) (in n-butanol, 303.15 K): 0.0973
solubility (mole fraction) (in n-propanol, 273.15 K): 0.0254
solubility (mole fraction) (in n-propanol, 275.65 K): 0.0293
solubility (mole fraction) (in n-propanol, 278.15 K): 0.0338
solubility (mole fraction) (in n-propanol, 280.65 K): 0.0385
solubility (mole fraction) (in n-propanol, 283.15 K): 0.0442
solubility (mole fraction) (in n-propanol, 285.65 K): 0.0505
solubility (mole fraction) (in n-propanol, 288.15 K): 0.0575
solubility (mole fraction) (in n-propanol, 290.65 K): 0.0648
solubility (mole fraction) (in n-propanol, 293.15 K): 0.0729
solubility (mole fraction) (in n-propanol, 295.65 K): 0.0833
solubility (mole fraction) (in n-propanol, 298.15 K): 0.0942
solubility (mole fraction) (in n-propanol, 300.65 K): 0.106
solubility (mole fraction) (in n-propanol, 303.152 K): 0.12
solubility (mole fraction) (in toluene, 273.15 K): 0.0957
solubility (mole fraction) (in toluene, 275.65 K): 0.11
solubility (mole fraction) (in toluene, 278.15 K): 0.126
solubility (mole fraction) (in toluene, 280.65 K): 0.144
solubility (mole fraction) (in toluene, 283.15 K): 0.167
solubility (mole fraction) (in toluene, 285.65 K): 0.188
solubility (mole fraction) (in toluene, 288.15 K): 0.215
solubility (mole fraction) (in toluene, 290.65 K): 0.245
solubility (mole fraction) (in toluene, 293.15 K): 0.276
solubility (mole fraction) (in toluene, 295.65 K): 0.31
solubility (mole fraction) (in toluene, 298.15 K): 0.347
solubility (mole fraction) (in toluene, 300.65 K): 0.385
solubility (mole fraction) (in toluene, 303.15 K): 0.428
